Test results reported in patent publication US12098145B2 (Libra Therapeutics, Inc., priority 2022, dated 2024).
pEC50: −log10 of the molar value. Where two headings read alike, the source gives them in different places.

Experiments:
TRPML1 = target: T1, TRPML1 (Homo sapiens, UniProt Q9GZU1); assay: Cellular TRPML1 assay (FLIPR, GCaMP6f calcium read-out); type: cell-based; conditions: for EC50: HEKT-REx/GCaMP6f/TRPML1 cells, FLIPR TETRA, kinetic response over 300 seconds, read-out: TRPML1 FLIPR pEC50 (converted)
T1 construct: expressed in transfected cells; host or cells: HEK T-REx cells stably expressing GCaMP6f and TRPML1
Method in brief: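 HEK T-REx cells stably expressing TRPML1 and GCaMP6f, seeded 24 h before in Optimem + 0.5% FBS. After ~10 min pre-incubation at room temperature, compounds in Ca2+-free Tyrode's buffer were injected on FLIPR Tetra (final DMSO 0.5%). Calcium fluorescence kinetics followed for 300 s.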

TFEB = TFEB translocation assay (TFEB reporter in U2OS cells, imaging); type: cell-based; conditions: Homo sapiens; U2OS cell line with TFEB reporter, 2 hours incubation, nucleus to cytoplasm ratio, normalized to Torin-1; read-out: TFEB Translocation pEC50 (converted)
Method in brief: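 U2OS cells stably expressing mRFP-fused TFEB reporter, switched to Opti-MEM then treated 2 h at 37 °C with compounds (0.5% DMSO, 0.015% Tween 80). Hoechst-stained, PFA-fixed cells imaged at 20×; nucleus/cytoplasm intensity ratio per well normalized to Torin-1 (100%) and DMSO (0%).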

T1 sequence (Q9GZU1 whole entry): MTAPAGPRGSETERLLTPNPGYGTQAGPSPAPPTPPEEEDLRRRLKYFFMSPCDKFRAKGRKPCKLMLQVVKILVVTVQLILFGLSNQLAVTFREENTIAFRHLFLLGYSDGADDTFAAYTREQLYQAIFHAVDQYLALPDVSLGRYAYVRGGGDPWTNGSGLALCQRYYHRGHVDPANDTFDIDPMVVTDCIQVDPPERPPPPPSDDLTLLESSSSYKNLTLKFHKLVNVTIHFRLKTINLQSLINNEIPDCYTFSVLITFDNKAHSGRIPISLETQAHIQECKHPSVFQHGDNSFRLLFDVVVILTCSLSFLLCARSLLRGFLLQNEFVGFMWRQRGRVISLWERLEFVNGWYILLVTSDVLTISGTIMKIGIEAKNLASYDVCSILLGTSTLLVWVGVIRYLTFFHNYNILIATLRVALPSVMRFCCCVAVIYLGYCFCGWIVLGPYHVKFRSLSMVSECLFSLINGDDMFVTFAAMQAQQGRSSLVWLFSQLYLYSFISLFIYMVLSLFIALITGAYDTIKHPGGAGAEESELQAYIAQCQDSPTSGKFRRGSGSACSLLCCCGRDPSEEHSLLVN

| Compound | EC50 (TRPML1) [nM] | EC50 (TFEB) [nM] | pEC50 (TRPML1) |
| --- | --- | --- | --- |
| CCc1oc(N2CC(C)(CO)C2)nc1C(=O)Nc1cc(C)c(OC2CC3CC(C3)C2)c(F)c1 (stereo not shown) [Example 224, N-(4-(bicyclo[3.1.1]heptan-3-yloxy)-3-fluoro-5-methylphenyl)-5-ethyl-2-(3-(hydroxymethyl)-3-methylazetidin-1-yl)oxazole-4-carboxamide] | 10 to 1000 | 10 to 1000 |  |
| CCc1oc(N2CCCC2)nc1C(=O)Nc1cc(C)c(OC2CC3CC(C3)C2)c(F)c1 (stereo not shown) [Example 225, N-(4-(bicyclo[3.1.1]heptan-3-yloxy)-3-fluoro-5-methylphenyl)-5-ethyl-2-(pyrrolidin-1-yl)oxazole-4-carboxamide] | 10 to 1000 | 10 to 1000 |  |
| CCc1oc(N2CCCC2)nc1C(=O)Nc1cc(F)c(OC2CC3CC(C3)C2)c(F)c1 (stereo not shown) [Example 229, N-(4-(bicyclo[3.1.1]heptan-3-yloxy)-3,5-difluorophenyl)-5-ethyl-2-(pyrrolidin-1-yl)oxazole-4-carboxamide] | 10 to 1000 | 10 to 1000 |  |
| CCc1oc(N2CC3CCC3C2)nc1C(=O)Nc1ccc(OC2CC3C[C@H]3C2)c(F)c1 (stereo partly drawn) [Example 247, N-(4-(cis-bicyclo[3.1.0]hexan-3-yloxy)-3-fluorophenyl)-2-(3-azabicyclo[3.2.0]heptan-3-yl)-5-ethyloxazole-4-carboxamide] | 10 to 1000 | 10 to 1000 |  |
| CCc1oc(N2CC(C)(OC)C2)nc1C(=O)Nc1ccc(O[C@@H]2C[C@@H]3C[C@@H]3C2)c(Cl)c1 [Example 249, N-(4-(cis-bicyclo[3.1.0]hexan-3-yloxy)-3-chlorophenyl)-5-ethyl-2-(3-methoxy-3-methylazetidin-1-yl)oxazole-4-carboxamide] | 10 to 1000 | 10 to 1000 |  |
| CCc1oc(N2CC(CC)(OC)C2)nc1C(=O)Nc1cc(F)c(N2CC3CC(C3)C2)c(F)c1 [Example 254, N-(4-(3-azabicyclo[3.1.1]heptan-3-yl)-3,5-difluorophenyl)-5-ethyl-2-(3-ethyl-3-methoxyazetidin-1-yl)oxazole-4-carboxamide] |  | 10 to 1000 | 6.00 to 8.00 |
| CCc1oc(N2CCCC2)nc1C(=O)Nc1cc(F)c(N2CC3CC(C3)C2)c(F)c1 [Example 255, N-(4-(3-azabicyclo[3.1.1]heptan-3-yl)-3,5-difluorophenyl)-5-ethyl-2-(pyrrolidin-1-yl)oxazole-4-carboxamide] |  | 10 to 1000 | 6.00 to 8.00 |
| CCc1oc(N2CC(C)(C)C2)nc1C(=O)Nc1cc(F)c(N2CC3CC(C3)C2)c(F)c1 [Example 256, N-(4-(3-azabicyclo[3.1.1]heptan-3-yl)-3,5-difluorophenyl)-2-(3,3-dimethylazetidin-1-yl)-5-ethyloxazole-4-carboxamide] |  | 10 to 1000 | 6.00 to 8.00 |
| CCc1oc(N2CC3(C2)CC(F)(F)C3)nc1C(=O)Nc1cc(F)c(N2CC3CC(C3)C2)c(F)c1 [Example 259, N-(4-(3-azabicyclo[3.1.1]heptan-3-yl)-3,5-difluorophenyl)-2-(6,6-difluoro-2-azaspiro[3.3]heptan-2-yl)-5-ethyloxazole-4-carboxamide] | 1000 to 10000 | 10 to 1000 |  |
| CCC1(CC)CN(c2nc(C(=O)Nc3cc(C)c(OC4CC5CC(C5)C4)c(O)c3)c(CC(F)(F)F)o2)C1 (stereo not shown) [Example 260, N-(4-(bicyclo[3.1.1]heptan-3-yloxy)-3-hydroxy-5-methylphenyl)-2-(3,3-diethylazetidin-1-yl)-5-(2,2,2-trifluoroethyl)oxazole-4-carboxamide] | 10 to 1000 | 10 to 1000 |  |
| CCC1(CC)CN(c2nc(C(=O)Nc3cc(O)c(OC4CC5CC(C5)C4)c(Cl)c3)c(CC(F)(F)F)o2)C1 (stereo not shown) [Example 261, N-(4-(bicyclo[3.1.1]heptan-3-yloxy)-3-chloro-5-hydroxyphenyl)-2-(3,3-diethylazetidin-1-yl)-5-(2,2,2-trifluoroethyl)oxazole-4-carboxamide] | 10 to 1000 | 10 to 1000 |  |
| CCC1(CC)CN(c2nc(C(=O)Nc3cc(C)c(O[C@@H]4C[C@@H]5C[C@@H]5C4)c(O)c3)c(CC(F)(F)F)o2)C1 [Example 262, N-(4-(cis-bicyclo[3.1.0]hexan-3-yloxy)-3-hydroxy-5-methylphenyl)-2-(3,3-diethylazetidin-1-yl)-5-(2,2,2-trifluoroethyl)oxazole-4-carboxamide] | 10 to 1000 | 10 to 1000 |  |
| CCC1(CC)CN(c2nc(C(=O)Nc3cc(O)c(OC4CC5CC(C5)C4)c(F)c3)c(CC(F)(F)F)o2)C1 (stereo not shown) [Example 264, N-(4-(bicyclo[3.1.1]heptan-3-yloxy)-3-fluoro-5-hydroxyphenyl)-2-(3,3-diethylazetidin-1-yl)-5-(2,2,2-trifluoroethyl)oxazole-4-carboxamide] | 10 to 1000 | 10 to 1000 |  |
| CCC1(CC)CN(c2nc(C(=O)Nc3cc(O)c(O[C@@H]4C[C@@H]5C[C@@H]5C4)c(F)c3)c(CC(F)(F)F)o2)C1 [Example 269, N-(4-(cis-bicyclo[3.1.0]hexan-3-yloxy)-3-fluoro-5-hydroxyphenyl)-2-(3,3-diethylazetidin-1-yl)-5-(2,2,2-trifluoroethyl)oxazole-4-carboxamide] | 10 to 1000 | 10 to 1000 |  |

Further lines, with some results ahead:

| EC50 (TRPML1) [nM] | Compound | EC50 (TFEB) [nM] | pEC50 (TRPML1) |
| --- | --- | --- | --- |
| 10 to 1000 | CCc1oc(N2CC(CC)(CC)C2)nc1C(=O)Nc1cc(F)c(O[C@@H]2C[C@@H]3C[C@@H]3C2)c(Cl)c1 [Example 221, N-(4-(cis-bicyclo[3.1.0]hexan-3-yloxy)-3-chloro-5-fluorophenyl)-2-(3,3-diethylazetidin-1-yl)-5-ethyloxazole-4-carboxamide] | 10 to 1000 |  |
| 10 to 1000 | CCc1oc(N2CC(C)(OC)C2)nc1C(=O)Nc1cc(F)c(O[C@@H]2C[C@@H]3C[C@@H]3C2)c(Cl)c1 [Example 223, N-(4-(cis-bicyclo[3.1.0]hexan-3-yloxy)-3-chloro-5-fluorophenyl)-5-ethyl-2-(3-methoxy-3-methylazetidin-1-yl)oxazole-4-carboxamide] | 10 to 1000 |  |
| 10 to 1000 | CCc1oc(N2CC(CC)(OC)C2)nc1C(=O)Nc1cc(C)c(O[C@@H]2C[C@@H]3C[C@@H]3C2)c(F)c1 [Example 227, N-(4-(cis-bicyclo[3.1.0]hexan-3-yloxy)-3-fluoro-5-methylphenyl)-5-ethyl-2-(3-ethyl-3-methoxyazetidin-1-yl)oxazole-4-carboxamide] | 10 to 1000 |  |
| 10 to 1000 | CCc1oc(N2CC(CC)(OC)C2)nc1C(=O)Nc1ccc(OC2CC3CC(C3)C2)c(F)c1 (stereo not shown) [Example 228, N-(4-(bicyclo[3.1.1]heptan-3-yloxy)-3-fluorophenyl)-5-ethyl-2-(3-ethyl-3-methoxyazetidin-1-yl)oxazole-4-carboxamide] | 10 to 1000 |  |
| 10 to 1000 | CCc1oc(N2CC(CC)(OC)C2)nc1C(=O)Nc1cc(F)c(OC2CC3CC(C3)C2)c(F)c1 (stereo not shown) [Example 230, N-(4-(bicyclo[3.1.1]heptan-3-yloxy)-3,5-difluorophenyl)-5-ethyl-2-(3-ethyl-3-methoxyazetidin-1-yl)oxazole-4-carboxamide] | 10 to 1000 |  |
| 10 to 1000 | CCc1oc(N2CCC3(CC3)C2)nc1C(=O)Nc1cc(F)c(O[C@@H]2C[C@@H]3C[C@@H]3C2)c(F)c1 [Example 235, N-(4-(cis-bicyclo[3.1.0]hexan-3-yloxy)-3,5-difluorophenyl)-5-ethyl-2-(5-azaspiro[2.4]heptan-5-yl)oxazole-4-carboxamide] | 10 to 1000 |  |
| 10 to 1000 | CCc1oc(N2CC(CC)(OC)C2)nc1C(=O)Nc1cc(F)c(O[C@@H]2C[C@@H]3C[C@@H]3C2)c(F)c1 [Example 238, N-(4-(cis-bicyclo[3.1.0]hexan-3-yloxy)-3,5-difluorophenyl)-5-ethyl-2-(3-ethyl-3-methoxyazetidin-1-yl)oxazole-4-carboxamide] | 10 to 1000 |  |
| 10 to 1000 | CCc1oc(N2CC(C)(OC)C2)nc1C(=O)Nc1cc(F)c(O[C@@H]2C[C@@H]3C[C@@H]3C2)c(F)c1 [Example 239, N-(4-(cis-bicyclo[3.1.0]hexan-3-yloxy)-3,5-difluorophenyl)-5-ethyl-2-(3-methoxy-3-methylazetidin-1-yl)oxazole-4-carboxamide] | 10 to 1000 |  |
| 10 to 1000 | CCc1oc(N2CC3CCCC3C2)nc1C(=O)Nc1cc(F)c(OC2CC3C[C@H]3C2)c(F)c1 (stereo partly drawn) [Example 240, N-(4-(cis-bicyclo[3.1.0]hexan-3-yloxy)-3,5-difluorophenyl)-5-ethyl-2-(hexahydrocyclopenta[c]pyrrol-2(1H)-yl)oxazole-4-carboxamide] | 10 to 1000 |  |
| 10 to 1000 | CCc1oc(N2CC3CCC3C2)nc1C(=O)Nc1cc(F)c(OC2CC3C[C@H]3C2)c(F)c1 (stereo partly drawn) [Example 241, N-(4-(cis-bicyclo[3.1.0]hexan-3-yloxy)-3,5-difluorophenyl)-2-(3-azabicyclo[3.2.0]heptan-3-yl)-5-ethyloxazole-4-carboxamide] | 10 to 1000 |  |
| 10 to 1000 | CCc1oc(N2CCCC2)nc1C(=O)Nc1cc(F)c(O[C@@H]2C[C@@H]3C[C@@H]3C2)c(F)c1 [Example 244, N-(4-(cis-bicyclo[3.1.0]hexan-3-yloxy)-3,5-difluorophenyl)-5-ethyl-2-(pyrrolidin-1-yl)oxazole-4-carboxamide] | 10 to 1000 |  |
| 10 to 1000 | CCc1oc(N2CC(CC)(CC)C2)nc1C(=O)Nc1ccc(O[C@@H]2C[C@@H]3C[C@@H]3C2)c(F)c1 [Example 245, N-(4-(cis-bicyclo[3.1.0]hexan-3-yloxy)-3-fluorophenyl)-2-(3,3-diethylazetidin-1-yl)-5-ethyloxazole-4-carboxamide] | 10 to 1000 |  |
